# Results taken from patent publication US11541029B2, “High penetration compositions and their applications” (Techfields Pharma Co., Ltd., priority 2008, dated 2023).
# What was measured:
# [1] = system: fungal diseases and insects of grape vine; assay: Antiviral, anti-fungus, anti-insect activity in red grape vine; type: in vivo
# Source text: 2 Acres of grape vine was divided into 4 groups (½ acre each). All field operations concerning land preparation and the uses of fertilizers were same for all groups. Group A was control group treated with no chemicals. Group B was normal fungicides and insecticides-treated group. Group C was N,N-diethylaminoethyl acetylsalicylate treated group. Group D was N,N-diethylaminoethyl acetylsalicylate and N,N-diethylaminoethyl jasmonate.citric acid treated group. In group A, black rot, downy mildew, powdery mildew, anthracnose, Phomopsis Blight, and other fungal diseases were found and Grape Berry Moth, Grape Root Borer, Rose Chafer, Japanese beetle, grape tomato gall, and other diseases and insects were found. Yield nothing of good (edible) grapes. In group B, 200 g of Ferbam 76% WP in 100 kg of water was applied to the group B grape vines in November 15; 160 g of sulfur 95% WP and 600 g of hydrated lime in 100 kg of water was applied to the group B grape vines in December 15; 200 g of Daconil 2787 in 100 kg of water was applied to the group B grape vines in March 10; 250 g of Captan 50% WP and 200 g of dimethomorph 50% WP in 100 kg of water was applied to the group B grape vines in March 20; 30 g of (4″R)-4″-deoxy-4″-(methylamino)avermectin B1 benzoate [proclaim ? (banleptm)] […]
# [2] = Distribution in organs of rats killed with CO2 (absence of general circulation); settings: 5 hrs after 0.3 mmol/kg diethylaminoethyl acetylsalicylate HCl salt on back of killed rats;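 note: tissue concentration in nmol/g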
# Method: 0.3 mmol/kg of diethylaminoethyl acetylsalicylate HCl salt (10% in pure water) was applied to the back of rats (10 cm^2) which were killed with CO2. The rats were shaken for 5 hrs, then the HPCs and parent drugs in organs of rats were determined.
# normal SD rats (SLAC/SD) = assay: Blood glucose in normal SD rats treated with HPCs of NSAIAs; type: in vivo; settings: 30 mg/kg transdermally once per day, no fasting
# Summary of the method: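 GK (type 2 diabetic) and normal SD rats, 14-16 weeks old, n=7, received 30 mg/kg test compound in 25% ethanol transdermally on a 6 cm^2 shaved back area once daily at 8 am for 6 weeks. Non-fasting blood glucose was measured at 4:30 pm every 3 days from week 3 to week 6.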
compound,measurement,setting,value
"CCN(CC)CCOC(=O)c1ccccc1OC(C)=O.Cl [P-1, diethylaminoethyl acetylsalicylate.HCl salt]",Yield of good (edible) grapes,"[1]; 1/2 acre per group, Malathion co-applied in group C",6300 kg
same,harvest dates earlier,[1]; groups C and D,10 days
same,concentration in Leg muscle,[2],5.2 ± 3.2 nmol/g
same,concentration in kidney,[2],3.1 ± 1.4 nmol/g
same,concentration in liver,[2],1.2 ± 1.1 nmol/g
same,concentration in pancreas,[2],2.7 ± 1.3 nmol/g
same,concentration in stomach,[2],4.3 ± 1.1 nmol/g
same,"blood glucose, Average (Week 2-5)",normal SD rats (SLAC/SD),5.7 ± 1.3 mmol/L
same,"blood glucose, Day 1",normal SD rats (SLAC/SD),5.8 ± 1.5 mmol/L
